Results reported in US11992479B2, “R-fadrozole for use in the treatment of aldostonerism” (priority 2018, dated 2024).
Read-outs that look alike come from different tables or passages of the source. Marks after values point to notes of the source that are not given here.

Legend:
[1] = tested on: follicle stimulating hormone (FSH); conditions: for Serum FSH: mean ± SEM
Experimental: (§1) All of the above assays used for measuring serum estradiol, testosterone, and FSH levels were conducted as described by the manufacture.

estradiol = conditions: for Serum Estradiol: mean ± SEM
Experimental: as §1

testosterone = conditions: for Serum Testosteron: mean ± SEM
Experimental: as §1

[2] = up until 225° C., TGA/DSC
Experimental: The thermogravimetric analysis and differential scanning calorimetry (TGA/DSC) studies were performed using a Mettler Toledo TGA/DSC1 STARe System with a 34-position auto sampler. The samples were made using AI crucibles (40 μL; pierced). Typically 5-10 mg of sample was loaded into a pre-weighed Al crucible and was kept at 30° C. for 5 minutes, after which it was heated at 10° C./min from 30° C. to 350° C. A nitrogen purge of 40 ml/min was maintained over the sample. […] No corrections were applied to the thermogram.

[3] = Experimental: The Dynamic Vapour Sorption (DVS) studies were performed using a Surface Measurement Systems Ltd. DVS-1 No Video. The sample was loaded into a balance pan, typically 20-30 mg, and equilibrated at 0% RH. […] After completion of the sorption cycle, the sample was dried using the same method. The software used for data collection was DVSWin v3.01 No Video. Data analysis was performed using DVS Standard Analysis Suite v6.3.0 (Standard).
plasma aldosterone = conditions: for Plasma levels of Aldosterone: mean ± SEM
Description: (§2) There were 6 subjects treated with each dose and twelve subjects treated with placebo (two placebo-treated-subjects included with each dose group).
(§3) The diet consisted of 70-80 mEq/day of sodium and 80-90 mEq/day of potassium. Blood samples were obtained daily at the time points indicated in the accompanying Tables for measurements of aldosterone, 11β-deoxycorticosterone (DOC), and potassium (K^+). All of the blood samples were obtained while the subjects were seated in a resting state.
Statistical evaluations of the hormonal responses was performed using the two-tailed, paired Student's t-test to evaluate within treatment group data, and data from between treatment groups utilized the two-tailed t-test equal variance model.

potassium = conditions: mean ± SEM
Description: as §2, §3

cortisol = assay: ACTH (Synacten) stress test: cortisol response; conditions: 16 mg/day
Experimental: For a stress test, on day 1 of the single dose phase of the study or on day 7 of the multiple dose phase of the study an ACTH (Synacten) stress test was initiated as follows. […] Blood samples were obtained 60 min post-Synacten. The samples were analyzed for aldosterone and 11β-deoxycorticosterone (DOC) by the Clinical Chemistry Unit at the University Hospital Inselspital Bern, Bern Switzerland. Aldosterone was measured using the Liaison® chemiluminescent immunoassay kit supplied by DiaSorin S.p.A. Italy. Because this assay system uses specific monoclonal antibodies for aldosterone there are no cross reactions with other major potential reactants in the serum samples. The assays were performed according to the instructions provided by the manufacturer.
Serum cortisol, estradiol, testosterone, and follicle stimulating hormone (FSH) were measured by Covance's diagnostic unit, Harrogate, UK with the ADVIA Centaur®CP system (Siemens AG). […] The ADVIA Centaur enhanced estradiol assay is a fully automated, monoclonal competitive, chemiluminescent immunoassay, and has a sensitivity of 10 pg/ml. […] The ADVIA Centaur®CP testosterone assay is a competitive, solid phase immunoassay using direct chemiluminescent technology. All of the above assays were conducted as described by the manufacture.

[4] = 4 mg once daily, Day 1 (08:00 h), pretreatment
[5] = 4 mg once daily, Day 2 (08:00 h)
[6] = 4 mg once daily, Day 9 (08:00 h)
[7] = 8 mg once daily, Day 1 (08:00 h), pretreatment
[8] = 8 mg once daily, Day 2 (08:00 h)
[9] = 8 mg once daily, Day 9 (08:00 h)
[10] = 16 mg once daily, Day 1 (08:00 h), pretreatment
[11] = 16 mg once daily, Day 2 (08:00 h)
[12] = 16 mg once daily, Day 9 (08:00 h)
[13] = once-daily oral dosing with 4, 8, or 16 mg

N#Cc1ccc([C@H]2CCCc3cncn32)cc1.O=P(O)(O)O [DP13, (R)-(+)-5-(p-cyanophenyl)-5,6,7,8-tetrahydroimidazolium[1,5-a]pyridine dihydrogen phosphate]
Serum FSH [1, 4]: 2.7 ± 0.22 IU/L | Serum FSH [1, 5]: 2.7 ± 0.27 IU/L | Serum FSH [1, 6]: 2.7 ± 0.27 IU/L | Serum FSH [1, 7]: 4.3 ± 0.94 IU/L | Serum FSH [1, 8]: 4.1 ± 0.79 IU/L | Serum FSH [1, 9]: 4.1 ± 0.91 IU/L | Serum FSH [1, 10]: 2.6 ± 0.43 IU/L | Serum FSH [1, 11]: 2.5 ± 0.43 IU/L | Serum FSH [1, 12]: 2.5 ± 0.43 IU/L | effect on circulating FSH [1, 13]: nor increased circulating testosterone or FSH | Serum Estradiol (estradiol; [4]): 98 ± 10.2 pM/L | Serum Estradiol (estradiol; [5]): 92 ± 9.8 pM/L | Serum Estradiol (estradiol; [6]): 127 ± 8.3^a,b pM/L | Serum Estradiol (estradiol; [7]): 90.0 ± 9.5 pM/L | Serum Estradiol (estradiol; [8]): 90.0 ± 12.1 pM/L | Serum Estradiol (estradiol; [9]): 113 ± 8.3^a pM/L | Serum Estradiol (estradiol; [10]): 97.4 ± 15.3 pM/L | Serum Estradiol (estradiol; [11]): 97.0 ± 9.4 pM/L | Serum Estradiol (estradiol; [12]): 114.0 ± 8.5 pM/L | change of estradiol (estradiol; 4 and 8 mg doses after 8 days of treatment): slightly increased | effect on estradiol (estradiol; [13]): neither inhibited estradiol | Serum Testosteron (testosterone; [4]): 17 ± 1.9 nM/L | Serum Testosteron (testosterone; [5]): 18 ± 1.9 nM/L | Serum Testosteron (testosterone; [6]): 15 ± 1.5^b nM/L | Serum Testosteron (testosterone; [7]): 18 ± 1.7 nM/L | Serum Testosteron (testosterone; [8]): 21 ± 6.2^a nM/L | Serum Testosteron (testosterone; [9]): 16 ± 1.4^a nM/L | Serum Testosteron (testosterone; [10]): 17 ± 1.9 nM/L | Serum Testosteron (testosterone; [11]): 20 ± 2.0^a nM/L | Serum Testosteron (testosterone; [12]): 17 ± 1.7 nM/L | effect on circulating testosterone (testosterone; [13]): nor increased circulating testosterone or FSH | Mass loss upon heating [2]: 1.4% | crystalline form upon DVS treatment [3]: crystalline form does not change upon DVS treatment | suppression of plasma aldosterone compared to placebo (plasma aldosterone; 1 mg dose): 52% | suppression of plasma aldosterone compared to pretreatment values (plasma aldosterone; 1 mg dose, 18 and 24 hours after the last once daily dose on day 8 (so in the source)): 18% | suppression of plasma aldosterone compared to placebo (plasma aldosterone; 2 mg dose): 61% | suppression of plasma aldosterone compared to pretreatment values (plasma aldosterone; 2 mg dose, 18 and 24 hours after the last once daily dose on day 8 (so in the source)): 39% | Plasma levels of Aldosterone (plasma aldosterone; 4 mg once daily oral, 8 days, Day 1, 08:00 h, pretreatment): 306.2 ± 59.0 pmol/L | Plasma levels of Aldosterone (plasma aldosterone; [5]): 198.4 ± 43.4^b,d pmol/L | Plasma levels of Aldosterone (plasma aldosterone; 4 mg once daily, Day 8, 14:00 h): 166.2 ± 17.9^c,d pmol/L | Plasma levels of Aldosterone (plasma aldosterone; 4 mg once daily, Day 9, 08:00 h (24 h after last dose)): 334.9 ± 53.3 pmol/L | plasma aldosterone versus placebo control (plasma aldosterone; 4 mg/day oral, day 9, twenty-four hours after the last of 8 daily doses): failed to lower the plasma aldosterone level below the level of the placebo control | Plasma levels of Aldosterone (plasma aldosterone; 8 mg once daily oral, 8 days, Day 1, 08:00 h, pretreatment): 271.4 ± 31.5 pmol/L | Plasma levels of Aldosterone (plasma aldosterone; [8]): 118.0 ± 12.4^b,d pmol/L | Plasma levels of Aldosterone (plasma aldosterone; 8 mg once daily, Day 8, 14:00 h): 91.9 ± 7.5^c,d pmol/L | Plasma levels of Aldosterone (plasma aldosterone; 8 mg once daily, Day 9, 08:00 h (24 h after last dose)): 186.4 ± 22.1^d pmol/L | suppression of plasma aldosterone compared to pretreatment values (plasma aldosterone; 8 mg once daily, twenty-four hours after the last dose on day 8): 32% | Plasma levels of Aldosterone (plasma aldosterone; 16 mg once daily oral, 8 days, Day 1, 08:00 h, pretreatment): 314.6 ± 48.6 pmol/L | Plasma levels of Aldosterone (plasma aldosterone; [11]): 108.4 ± 13.4^b,d pmol/L | Plasma levels of Aldosterone (plasma aldosterone; 16 mg once daily, Day 8, 14:00 h): 100.9 ± 8.3^c,d pmol/L | Plasma levels of Aldosterone (plasma aldosterone; 16 mg once daily, Day 9, 08:00 h (24 h after last dose)): 156.0 ± 26.8^a,d pmol/L | suppression of plasma aldosterone compared to pretreatment values (plasma aldosterone; 16 mg once daily, twenty-four hours after the last dose on day 8): 50% | Plasma levels of Aldosterone (plasma aldosterone; single dose 1 mg, Day 1, 08:00 h, pretreatment): 171 ± 8.1 pmol/L | Plasma levels of Aldosterone (plasma aldosterone; single dose 1 mg, Day 1, 14:00 h): 118 ± 8.4^e pmol/L | Plasma levels of Aldosterone (plasma aldosterone; single dose 1 mg, Day 1, 20:00 h): 104 ± 4.9^e pmol/L | Plasma levels of Aldosterone (plasma aldosterone; single dose 1 mg, Day 2, 08:00 h): 141 ± 14^e pmol/L | Plasma levels of Aldosterone (plasma aldosterone; single dose 2 mg, Day 1, 08:00 h, pretreatment): 203 ± 13.8 pmol/L | Plasma levels of Aldosterone (plasma aldosterone; single dose 2 mg, Day 1, 14:00 h): 129 ± 8.8^e pmol/L | Plasma levels of Aldosterone (plasma aldosterone; single dose 2 mg, Day 1, 20:00 h): 114 ± 9.2^e pmol/L | Plasma levels of Aldosterone (plasma aldosterone; single dose 2 mg, Day 2, 08:00 h): 124 ± 9^e pmol/L | Blood levels of potassium (potassium; [4]): 4.4 ± 0.6 mmol/L | Blood levels of potassium (potassium; 4 mg once daily, Day 8, 08:00 h pre-dose): 4.8 ± 0.8^a,b mmol/L | Blood levels of potassium (potassium; [7]): 4.3 ± 0.07 mmol/L | Blood levels of potassium (potassium; 8 mg once daily, Day 8, 08:00 h pre-dose): 4.6 ± 0.09^a,b mmol/L | Blood levels of potassium (potassium; [10]): 4.4 ± 0.11 mmol/L | Blood levels of potassium (potassium; 16 mg once daily, Day 8, 08:00 h pre-dose): 4.7 ± 0.06^a,b mmol/L | cortisol before ACTH, the one subject below guideline (cortisol): 324 nmol/L | cortisol in response to ACTH, the one subject below guideline (cortisol; guideline 552 nmol/L): 504 nmol/L
